According to BindingDB's records for doi:10.3109/14756366.2011.591290 (Agri Ibrahim Cecen University, 2012):
pKi: −log10 of the molar value.

What was measured:
Assay in all cases: CA Activity Assay
Conditions in all cases: pH 7.4; 25 °C
Carbonic anhydrase 1 = Carbonic anhydrase 1 (Homo sapiens, UniProt P00915)
Carbonic anhydrase 2 = Carbonic anhydrase 2 (Homo sapiens, UniProt P00918)
Carbonic anhydrase 6 = Carbonic anhydrase 6 (Homo sapiens, UniProt P23280)
Chain of Carbonic anhydrase 6 (P23280 whole entry): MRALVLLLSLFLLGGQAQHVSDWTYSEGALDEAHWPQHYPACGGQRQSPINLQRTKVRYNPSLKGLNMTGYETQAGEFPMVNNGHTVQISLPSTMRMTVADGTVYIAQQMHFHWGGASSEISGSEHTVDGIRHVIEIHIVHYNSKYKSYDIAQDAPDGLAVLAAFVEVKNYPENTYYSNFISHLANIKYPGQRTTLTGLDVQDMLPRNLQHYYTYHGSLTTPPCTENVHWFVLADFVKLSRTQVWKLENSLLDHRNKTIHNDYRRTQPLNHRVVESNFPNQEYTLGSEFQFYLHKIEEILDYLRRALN

Chain of Carbonic anhydrase 1 (P00915 whole entry): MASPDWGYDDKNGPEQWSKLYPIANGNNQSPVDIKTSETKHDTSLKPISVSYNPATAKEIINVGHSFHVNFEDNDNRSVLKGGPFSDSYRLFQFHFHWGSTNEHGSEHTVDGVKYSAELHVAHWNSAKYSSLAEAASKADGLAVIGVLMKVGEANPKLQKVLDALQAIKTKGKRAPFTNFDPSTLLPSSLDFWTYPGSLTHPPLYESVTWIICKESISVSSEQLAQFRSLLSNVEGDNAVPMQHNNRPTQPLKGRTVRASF

**Q.** With `NC1CCc2c(ccc(O)c2O)C1` (stereo unspecified) [6-Amino-5,6,7,8-tetrahydro-naphthalene-1,2-diol] as the molecule, how does the pKi (Carbonic anhydrase 1) read?
**A.** 4.35

**Q.** What about the pKi (Carbonic anhydrase 2) of the same molecule?
**A.** 6.42

**Q.** What about the pKi (Carbonic anhydrase 6) of the same molecule?
**A.** 6.01

**Q.** With `NC1Cc2cc(Br)c(Br)cc2C1` [CA inhibitor, 5] as the molecule, how does the pKi (Carbonic anhydrase 2) read?
**A.** 3.33

**Q.** And the pKi (Carbonic anhydrase 6)?
**A.** 6.11

**Q.** `NC1Cc2ccc(Br)cc2C1` (stereo unspecified) [CA inhibitor, 6] was tested. Which pKi (Carbonic anhydrase 1) did it give?
**A.** 3.79

**Q.** What about the pKi (Carbonic anhydrase 2) of the same molecule?
**A.** 3.84

**Q.** What about the pKi (Carbonic anhydrase 6) of the same molecule?
**A.** 6.24

**Q.** `NC1CCc2cc(O)c(O)cc2C1` (stereo unspecified) was tested. Which pKi (Carbonic anhydrase 1) did it give?
**A.** 4.39

**Q.** What about the pKi (Carbonic anhydrase 2) of the same molecule?
**A.** 6.36

**Q.** What about the pKi (Carbonic anhydrase 6) of the same molecule?
**A.** 5.94
